Reference: patent US12495798B2, “Nicotinamide compound and herbicidal composition comprising compound” (KOREA RESEARCH INSTITUTE OF CHEMICAL TECHNOLOGY, priority 2019, dated 2025)

What was measured:
Assay type in all cases: in vivo
black nightshade = assay: Herbicidal activity test against upland field weeds (foliar treatment test); parameters: key to Foliar treatment herbicidal activity, black nightshade: 0 (no control); 100 (complete control); settings: 50 g ai/ha, scale 0-100; for pest or weed control at 50 g/ha: Solanum nigrum
Method: (§1) Experimental Example 1: Herbicidal Activity Test Against Upland Field Weeds (Foliar Treatment Test) Foliar treatment was performed as follows: After filling a square plastic pot having a surface area of 350 cm^2 with horticultural soil, seeds (10˜15 grains) or rootstocks (2 pieces) of 5 kinds of grassy weeds of sorghum, barnyard grass, quack grass, crabgrass, fall panicum, and 5 kinds of broadleaf weeds of black nightshade, indian jointvetch, velvetleaf, cocklebur, bindweed, which had been stored in a low temperature (6° C.), were sown. After growing for a certain period in greenhouse conditions (average temperature 30±5° C., light/dark=14/10 hours), test compound solutions were made by diluting with a preparation solution (including 50% acetone, 0.1% Tween-20) so that the final treatment amount of the test compounds was 50 or 75 g a.i./ha. The prepared test compound solution was used for treating foliage by hand-spraying 14 mL per pot in a fume hood. After the treatment, it was managed under the same greenhouse conditions as above, and after 14 days (after 21 days if necessary), the external symptoms and efficacy were investigated according to the scale of 0 (no control) to 100 (complete control). The results of Table 7 were obtained by evaluating weed control value to the untreated control by conducting visual assessment.

velvetleaf = assay: as above; settings: 50 g ai/ha; for pest or weed control at 50 g/ha: Abutilon theophrasti, scale 0-100, read-out: Foliar treatment herbicidal activity, velvet leaf
Method: as §1

sorghum = assay: as above; parameters: key to Foliar treatment herbicidal activity, Sorghum: 0 (no control); 100 (complete control); settings: 50 g ai/ha, scale 0-100; for plant injury at 50 g/ha: Sorghum
Method: as §1

cocklebur = assay: as above; settings: 50 g ai/ha, scale 0-100; for pest or weed control at 50 g/ha: Xanthium strumarium
Method: as §1

quack grass = assay: as above; parameters: key to Foliar treatment herbicidal activity, quack grass: 0 (no control); 100 (complete control); settings: 50 g ai/ha, scale 0-100
Method: as §1

wheat = assay: Phytotoxicity test for upland field crops (foliar treatment test); parameters: key: 0 (no harm); 9 (complete withered)
Method: (§2) Experimental Example 3: Phytotoxicity Test for Upland Field Crops (Foliar Treatment Test)
(§3) Foliar treatment was performed for grown crops and weeds in a square plastic pot having a surface area of 50 cm^2 filled with horticultural soil. As a fertilizer per pot, 0.5 g of horticultural mixed fertilizer (N:P:K=17:21:17) was treated by mixing in the upper soil. Five kinds of crops such as rice, wheat, corn, soybean, and cotton were sown in each pot, and after growing for a certain period in greenhouse conditions (average temperature 30±5° C., light/dark=14/10 hours), test compound solutions were made by diluting with the diluent (33% acetone, 0.1% Tween-20) so that the final treatment amount of the test compounds was 19˜300 g a.i./ha. The prepared test compound solutions were treated using a spray booth (SB6-016) at a treatment amount of 100 ml per 1 m^2 of treatment area. The treated plants were managed under the same greenhouse conditions as above, and external symptoms and phytotoxicity were investigated 7 and 14 days after treatment (after 21 days if necessary). In the evaluation of the phytotoxicity for the crop, the grade of 0 (no harm) to 9 (complete withered) was used. The results of Table 9 were obtained by evaluating crop phytotoxicity value to the untreated control.

corn = assay: as above; parameters: key: 0 (no harm); 9 (complete withered)
Method: as §2, §3

bindweed = assay: Herbicidal activity test against upland field weeds (foliar treatment test); settings: 50 g ai/ha, scale 0-100
Method: as §1

fall panicum = assay: as above; settings: 50 g ai/ha, scale 0-100; for pest or weed control at 50 g/ha: Panicum dichotomiflorum
Method: as §1

barnyard grass = assay: as above; parameters: key to Foliar treatment herbicidal activity, barnyard grass: 0 (no control); 100 (complete control); settings: 50 g ai/ha, scale 0-100; for pest or weed control at 50 g/ha: Echinochloa crus-galli
Method: as §1

indian jointvetch = assay: as above; parameters: key to Foliar treatment herbicidal activity, Indian jointvetch: 0 (no control); 100 (complete control); settings: 50 g ai/ha, scale 0-100
Method: as §1

crabgrass = assay: as above; parameters: key to Foliar treatment herbicidal activity, Crabgrass: 0 (no control); 100 (complete control); settings: 50 g ai/ha, scale 0-100; for pest or weed control at 50 g/ha: Digitaria sanguinalis
Method: as §1

[1] = 50 g ai/ha, Wheat (7 days after treatment)
[2] = 50 g ai/ha, Wheat (14 days after treatment)
[3] = 100 g ai/ha, Wheat (7 days after treatment)
[4] = 100 g ai/ha, Wheat (14 days after treatment)
[5] = 50 g ai/ha, Corn (7 days after treatment)
[6] = 50 g ai/ha, Corn (14 days after treatment)
[7] = 100 g ai/ha, Corn (7 days after treatment)
[8] = 100 g ai/ha, Corn (14 days after treatment)

CCCn1nnnc1NC(=O)c1ccc(C(F)(F)F)nc1COCc1nc(C(F)F)n(C)n1 [Compound No. 2-124]
Foliar treatment herbicidal activity, black nightshade (black nightshade): 95
Foliar treatment herbicidal activity, velvet leaf (velvetleaf; scale 0-100): 60
Foliar treatment herbicidal activity, Sorghum (sorghum): 40
Foliar treatment herbicidal activity, Cocklebur (cocklebur): 80
Foliar treatment herbicidal activity, quack grass (quack grass): 20
Foliar treatment phytotoxicity, Wheat (wheat; [1]): 0
Foliar treatment phytotoxicity, Wheat (wheat; [2]): 1
Foliar treatment phytotoxicity, Wheat (wheat; [3]): 1
Foliar treatment phytotoxicity, Wheat (wheat; [4]): 1
Foliar treatment phytotoxicity, Corn (corn; [5]): 2
Foliar treatment phytotoxicity, Corn (corn; [6]): 1
Foliar treatment phytotoxicity, Corn (corn; [7]): 3
Foliar treatment phytotoxicity, Corn (corn; [8]): 2
Foliar treatment herbicidal activity, Bindweed (bindweed): 70
Foliar treatment herbicidal activity, Fall panicum (fall panicum): 90
Foliar treatment herbicidal activity, barnyard grass (barnyard grass): 90
Foliar treatment herbicidal activity, Indian jointvetch (indian jointvetch): 60
Foliar treatment herbicidal activity, Crabgrass (crabgrass): 95

CCCn1nnnc1NC(=O)c1ccc(C(F)(F)F)nc1COCc1ncn(C)n1 [Compound No. 2-114, 2-(((1-methyl-1H-1,2,4-triazol-3-yl)methoxy)methyl)-N-(1-propyl-1H-tetrazol-5-yl)-6-(trifluoromethyl)nicotinamide]
pest or weed control at 50 g/ha (black nightshade): 95%
pest or weed control at 50 g/ha (velvetleaf): 70%
Foliar treatment herbicidal activity, Sorghum (sorghum): 0
pest or weed control at 50 g/ha (cocklebur): 90%
pest or weed control at 50 g/ha (quack grass): 10%
Foliar treatment phytotoxicity, Wheat (wheat; [1]): 1
Foliar treatment phytotoxicity, Wheat (wheat; [2]): 0
Foliar treatment phytotoxicity, Wheat (wheat; [3]): 2
Foliar treatment phytotoxicity, Wheat (wheat; [4]): 1
Foliar treatment phytotoxicity, Corn (corn; [5]): 1
Foliar treatment phytotoxicity, Corn (corn; [6]): 0
Foliar treatment phytotoxicity, Corn (corn; [7]): 2
Foliar treatment phytotoxicity, Corn (corn; [8]): 0
pest or weed control at 50 g/ha (bindweed): 80%
pest or weed control at 50 g/ha (fall panicum): 40%
pest or weed control at 50 g/ha (barnyard grass): 60%
pest or weed control at 50 g/ha (indian jointvetch): 20%
Foliar treatment herbicidal activity, Crabgrass (crabgrass): 0

CCn1nnc(COCc2nc(C(F)(F)F)ccc2C(=O)Nc2nnnn2CC)n1 [Compound No. 2-88, N-(1-ethyl-1H-tetrazol-5-yl)-2-(((2-ethyl-2H-tetrazol-5-yl)methoxy)methyl)-6-(trifluoromethyl)nicotinamide]
Foliar treatment herbicidal activity, black nightshade (black nightshade): 100
pest or weed control at 50 g/ha (velvetleaf): 70%
Foliar treatment herbicidal activity, Sorghum (sorghum): 0
pest or weed control at 50 g/ha (cocklebur): 70%
Foliar treatment herbicidal activity, quack grass (quack grass): 0
Foliar treatment phytotoxicity, Wheat (wheat; [1]): 0
Foliar treatment phytotoxicity, Wheat (wheat; [2]): 0
Foliar treatment phytotoxicity, Wheat (wheat; [3]): 0
Foliar treatment phytotoxicity, Wheat (wheat; [4]): 0
Foliar treatment phytotoxicity, Corn (corn; [5]): 0
Foliar treatment phytotoxicity, Corn (corn; [6]): 0
Foliar treatment phytotoxicity, Corn (corn; [7]): 0
Foliar treatment phytotoxicity, Corn (corn; [8]): 0
pest or weed control at 50 g/ha (bindweed): 70%
pest or weed control at 50 g/ha (fall panicum): 40%
Foliar treatment herbicidal activity, barnyard grass (barnyard grass): 0
pest or weed control at 50 g/ha (indian jointvetch): 60%
pest or weed control at 50 g/ha (crabgrass): 20%

Cn1nnnc1NC(=O)c1ccc(C(F)(F)F)nc1COCc1nc(S(C)(=O)=O)n(C)n1 [Compound No. 2-132, N-(1-methyl-1H-tetrazol-5-yl)-2-(((1-methyl-5-(methylsulfonyl)-1H-1,2,4-triazol-3-yl)methoxy)methyl)-6-(trifluoromethyl)nicotinamide]
Foliar treatment herbicidal activity, black nightshade (black nightshade): 100
pest or weed control at 50 g/ha (velvetleaf): 98%
plant injury at 50 g/ha (sorghum): 30%
pest or weed control at 50 g/ha (cocklebur): 98%
Foliar treatment herbicidal activity, quack grass (quack grass): 0
Foliar treatment phytotoxicity, Wheat (wheat; [1]): 3
Foliar treatment phytotoxicity, Wheat (wheat; [2]): 2
Foliar treatment phytotoxicity, Wheat (wheat; [3]): 3
Foliar treatment phytotoxicity, Wheat (wheat; [4]): 2
Foliar treatment phytotoxicity, Corn (corn; [5]): 0
Foliar treatment phytotoxicity, Corn (corn; [6]): 0
Foliar treatment phytotoxicity, Corn (corn; [7]): 0
Foliar treatment phytotoxicity, Corn (corn; [8]): 0
pest or weed control at 50 g/ha (bindweed): 70%
pest or weed control at 50 g/ha (fall panicum): 50%
pest or weed control at 50 g/ha (barnyard grass): 98%
pest or weed control at 50 g/ha (indian jointvetch): 20%
pest or weed control at 50 g/ha (crabgrass): 98%

C=CCn1nnnc1NC(=O)c1ccc(C(F)(F)F)nc1COCc1nnn(CC)n1 [Compound No. 2-90, N-(1-allyl-1H-tetrazol-5-yl)-2-(((2-ethyl-2H-tetrazol-5-yl)methoxy)methyl)-6-(trifluoromethyl)nicotinamide]
Foliar treatment herbicidal activity, black nightshade (black nightshade): 100
pest or weed control at 50 g/ha (velvetleaf): 98%
plant injury at 50 g/ha (sorghum): 20%
pest or weed control at 50 g/ha (cocklebur): 70%
Foliar treatment herbicidal activity, quack grass (quack grass): 0
Foliar treatment phytotoxicity, Wheat (wheat; [1]): 0
Foliar treatment phytotoxicity, Wheat (wheat; [2]): 0
Foliar treatment phytotoxicity, Wheat (wheat; [3]): 0
Foliar treatment phytotoxicity, Wheat (wheat; [4]): 0
Foliar treatment phytotoxicity, Corn (corn; [5]): 0
Foliar treatment phytotoxicity, Corn (corn; [6]): 0
Foliar treatment phytotoxicity, Corn (corn; [7]): 0
Foliar treatment phytotoxicity, Corn (corn; [8]): 0
pest or weed control at 50 g/ha (bindweed): 70%
pest or weed control at 50 g/ha (fall panicum): 60%
pest or weed control at 50 g/ha (barnyard grass): 98%
pest or weed control at 50 g/ha (indian jointvetch): 80%
pest or weed control at 50 g/ha (crabgrass): 70%

C=CCn1nnnc1NC(=O)c1ccc(C(F)(F)F)nc1COCc1ncn(C)n1 [Compound No. 2-115, N-(1-allyl-1H-tetrazol-5-yl)-2-(((1-methyl-1H-1,2,4-triazol-3-yl)methoxy)methyl)-6-(trifluoromethyl)nicotinamide]
Foliar treatment herbicidal activity, black nightshade (black nightshade): 100
pest or weed control at 50 g/ha (velvetleaf): 50%
plant injury at 50 g/ha (sorghum): 10%
pest or weed control at 50 g/ha (cocklebur): 90%
Foliar treatment herbicidal activity, quack grass (quack grass): 0
Foliar treatment phytotoxicity, Wheat (wheat; [1]): 0
Foliar treatment phytotoxicity, Wheat (wheat; [2]): 0
Foliar treatment phytotoxicity, Wheat (wheat; [3]): 0
Foliar treatment phytotoxicity, Wheat (wheat; [4]): 0
Foliar treatment phytotoxicity, Corn (corn; [5]): 0
Foliar treatment phytotoxicity, Corn (corn; [6]): 0
Foliar treatment phytotoxicity, Corn (corn; [7]): 0
Foliar treatment phytotoxicity, Corn (corn; [8]): 0
pest or weed control at 50 g/ha (bindweed): 80%
pest or weed control at 50 g/ha (fall panicum): 50%
Foliar treatment herbicidal activity, barnyard grass (barnyard grass): 0
Foliar treatment herbicidal activity, Indian jointvetch (indian jointvetch): 0
pest or weed control at 50 g/ha (crabgrass): 20%

CCn1nnnc1NC(=O)c1ccc(C(F)(F)F)nc1COCc1nc(C(F)(F)F)n(C)n1 [Compound No. 2-119, N-(1-ethyl-1H-tetrazol-5-yl)-2-(((1-methyl-5-(trifluoromethyl)-1H-1,2,4-triazol-3-yl)methoxy)methyl)-6-(trifluoromethyl)nicotinamide]
pest or weed control at 50 g/ha (black nightshade): 98%
pest or weed control at 50 g/ha (velvetleaf): 50%
plant injury at 50 g/ha (sorghum): 20%
pest or weed control at 50 g/ha (cocklebur): 90%
pest or weed control at 50 g/ha (quack grass): 30%
Foliar treatment phytotoxicity, Wheat (wheat; [1]): 0
Foliar treatment phytotoxicity, Wheat (wheat; [2]): 0
Foliar treatment phytotoxicity, Wheat (wheat; [3]): 0
Foliar treatment phytotoxicity, Wheat (wheat; [4]): 0
Foliar treatment phytotoxicity, Corn (corn; [5]): 0
Foliar treatment phytotoxicity, Corn (corn; [6]): 0
Foliar treatment phytotoxicity, Corn (corn; [7]): 0
Foliar treatment phytotoxicity, Corn (corn; [8]): 0
pest or weed control at 50 g/ha (bindweed): 80%
pest or weed control at 50 g/ha (fall panicum): 90%
pest or weed control at 50 g/ha (barnyard grass): 95%
pest or weed control at 50 g/ha (indian jointvetch): 60%
pest or weed control at 50 g/ha (crabgrass): 95%
